The source of these data is PMC7400207, “It Takes Two: Dimerization Is Essential for the Broad-Spectrum Predatory and Defensive Activities of the Venom Peptide Mp1a from the Jack Jumper Ant Myrmecia pilosula” (Biomedicines, 2020).

The subject of one data set is A. baumannii ATCC 19606. The following applies: taken from Dekan et al.; cited from earlier work.
A further data set concerns F11 cells. The experiment in a line: FLIPR calcium assay, activation of F11 cells. The format is cell-based. Particulars: F11 cells, FLIPR. In outline: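 Intracellular calcium in F11 cells loaded 30 min at 37°C with Calcium 4 dye in physiological salt solution. Fluorescence read 10 s before and 300 s after peptide addition (PSS with 0.1% BSA); max–min signal as response, EC50 from four-parameter Hill fit, triplicates.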

Data set [1] deals with K. pneumoniae ATCC 700603. Particulars: taken from Dekan et al.; cited from earlier work.
In another data set the test system is P. aeruginosa FADDI-PA70. The following applies: taken from Dekan et al.; cited from earlier work.
Another data set relates to P. aeruginosa ATCC 27853. The following applies: taken from Dekan et al.; cited from earlier work.
In another data set the test system is Haemonchus contortus. In words: microbe, parasite or virus in culture. The format is cell-based. The method, then:
Sheep were infected with H. contortus Kirby isolate (field isolate from the University of New England Kirby Research Farm in 1986; susceptible to all commercial anthelmintics) and housed at the Commonwealth Scientific and Industrial Research Organisation (CSIRO) FD McMaster Laboratory, Armidale, NSW. All animal procedures were approved by the FD McMaster Animal Ethics Committee, CSIRO (Approval Number AEC 17/12, approval date 15.6.2017). Eggs were prepared from overnight fecal collection as described. In brief, feces were filtered through mesh filters, settled, and supernatant removed by vacuum. Eggs were recovered by density centrifugation using 10 and 25% (w/v) sucrose solutions, centrifuged at 650× g for 7 min. Eggs were recovered from the interface of the two sucrose layers, rinsed with distilled water, sterilized with bleach, rinsed again, and diluted to 4500 eggs/mL. Tylosin tartrate (800 μg/mL) and amphotericin B (25.0 μg/mL) were added, and eggs were used immediately for larval development assays.
Assays were conducted using 96-well microtitre plates, with each well containing 50 μL of 2% agar, 20 μL of egg solution and 20 μL of peptide solution in water. The commercial anthelmintic levamisole (Sigma Aldrich) was used as a positive control (final 1% v/v). Negative controls contained equivalent volumes of water or DMSO (final 1% v/v). Plates were incubated at 26 °C for six days. After 24 h, each well was fed with 10 μL of a nutrient solution containing Escherichia coli XL1-Blue1 (grown overnight at 37 °C) and growth medium. The growth medium consisted of yeast extract (1% w/v), Earle’s salt solution (10% v/v), saline solution (0.9% NaCl, w/v), and sodium bicarbonate (1 mM) in Luria-Bertani medium (LB). Larvae were killed and stained with Lugol’s iodine solution after six days. Larvae that had developed to the infective L3 stage were counted, and the numbers in treated assay wells were expressed as a percentage of the number of infective L3 stage larvae in multiple control wells. Concentrations that caused 50% inhibition (IC50 values) were calculated from three experiments of duplicate assays.

Another data set has as its system S. aureus NARSA-VRS1. The following applies: taken from Dekan et al.; cited from earlier work.
In the next data set the test system is S. aureus NRS 1. Particulars: taken from Dekan et al.; cited from earlier work.
A further data set has as its system E. coli ATCC 25922. Particulars: taken from Dekan et al.; cited from earlier work.
The test system of a further data set is S. aureus ATCC 43300. Particulars: taken from Dekan et al.; cited from earlier work.
The subject of a further data set is human red blood cells. Particulars: cited from earlier work. How it is done:
Table 2 Summary of bioassay data for synthetic Mp1a and analogues, including effective concentration (EC50) for activation of F11 cells, concentrations that caused 50% inhibition (IC50) for inhibition of larval development of H. contortus; median lethal dose (LD50) for lethal insecticidal effects on D. melanogaster; concentrations required to induce 50% cell death (CC50) for effects on viability o | column: Hemolysis (HC50 µM) ^b

In the next data set the test system is S. aureus NARSA-VRS10. Particulars: taken from Dekan et al.; cited from earlier work.
A further data set has as its system Drosophila melanogaster. The experiment in a line: Drosophila melanogaster microinjection assay. The format is in vivo. The following applies: intrathoracic injection, 50 nL, adult female flies, lethality at 24 h; three dose-response curves, ± SEM. In outline: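 Adult female flies (3–5 days, 0.7–0.9 mg) received intrathoracic injections of 50 nL aqueous analogue; lethality scored at 24 h, corrected for water-injected controls by Henderson-Tilton. LD50 from three dose–response curves of 7–10 doses, eight flies per dose.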

Data set [2] relates to K. pneumoniae ATCC BAA-2146. Particulars: taken from Dekan et al.; cited from earlier work.

For orientation: MIC means the lowest concentration that inhibits growth of the organism. For orientation: EC50 means the concentration needed to bring the measured effect to its halfway point.

SMILES strings stand for the structures. ≈ marks a conversion by molar mass, not a printed value. Where “and” joins values, the source holds several entries; their conditions need not be identical. Equal values may be shown once. Read-outs that look alike come from different tables or passages of the source.

Turning to `CC[C@H](C)[C@H](N)C(=O)N[C@@H](CC(=O)O)C(=O)N[C@@H](Cc1c[nH]c2ccccc12)C(=O)N[C@@H](CCCCN)C(=O)N[C@@H](CCCCN)C(=O)N[C@H](C(=O)N[C@@H](CC(=O)O)C(=O)N[C@@H](Cc1c[nH]c2ccccc12)C(=O)N[C@@H](CCCCN)C(=O)N[C@@H](CCCCN)C(=O)N[C@H](C(=O)N[C@@H](CO)C(=O)N[C@@H](CCCCN)C(=O)N[C@@H](CCCCN)C(=O)N[C@H](C(=O)N[C@H]1CSSC[C@@H](C(=O)N[C@@H](CCCCN)C(=O)N[C@@H](CCCCN)C(=O)N[C@H](C(=O)N[C@@H](CC(C)C)C(=O)N[C@@H](CCCCN)C(=O)N[C@@H](CCC(N)=O)C(N)=O)C(C)C)NC(=O)[C@H](C(C)C)NC(=O)[C@H]([C@@H](C)O)NC(=O)[C@H](CCCCN)NC(=O)[C@H](C(C)C)NC(=O)[C@H](CC(C)C)NC(=O)[C@H](C(C)C)NC(=O)[C@@H](NC(=O)[C@@H](NC(=O)CNC(=O)[C@H](CCCCN)NC(=O)[C@H](CO)NC(=O)[C@@H](NC(=O)[C@H](CC(C)C)NC(=O)CNC(=O)[C@@H](NC(=O)[C@@H](N)CC(C)C)[C@@H](C)CC)C(C)C)[C@@H](C)O)CSSC[C@@H](C(=O)N[C@@H](CCCCN)C(=O)N[C@@H](Cc2ccccc2)C(=O)N[C@@H](CC(C)C)C(N)=O)NC(=O)[C@H](C)NC(=O)[C@H](CCCCN)NC(=O)[C@H](CC(C)C)NC(=O)[C@H](CCSC)NC(=O)[C@H](C(C)C)NC(=O)[C@H](CCCCN)NC1=O)[C@@H](C)O)C(C)C)C(C)C` [Analogue 1a, ∆-myrtoxin-Mp1a], the MIC in the data set with A. baumannii ATCC 19606 is 0.025 µM (≈ 0.14 µg/mL); in [1] it was 0.4 to 0.8 µM; in the data set with P. aeruginosa FADDI-PA70, 0.8 µM (≈ 4.49 µg/mL); in the data set with P. aeruginosa ATCC 27853, 0.4 to 0.8 µM; in the data set with S. aureus NARSA-VRS1 it was 3.2 to 6.4 µM; with S. aureus NRS 1, 3.2 µM (≈ 17.9 µg/mL). Also, the MIC with E. coli ATCC 25922 was 0.1 to 0.2 µM; with S. aureus ATCC 43300 it was 0.8 µM (≈ 4.49 µg/mL); in the data set on S. aureus NARSA-VRS10 it was 0.8 µM (≈ 4.49 µg/mL); in data set [2] it was 0.1 to 0.2 µM. In addition, in the data set on F11 cells, the “Concentration at which cytolysis (rapid increase in fluorescence followed by decrease to or below baseline) was observed” value is given as at least 1 µM. The concentration giving a half-maximal response (EC50) in the data set with F11 cells (Calcium 4 dye, max-min fluorescence in 300 s after peptide addition, PSS with 0.1% BSA, mean ± SEM, triplicate, read-out: Neuronal Cell Activation (EC50)) stood at 850 ± 30 nM. The IC50 with Haemonchus contortus (H. contortus Kirby isolate, egg to infective L3, 6 days, 26 °C, three experiments of duplicate assays, ± SEM, for 1a the component at higher concentrations (about 90% of population), read-out: Anthelmintic Activity (IC50), inhibition of larval development) came out at 6800 ± 500 nM; with Haemonchus contortus (H. contortus larval development, component of the response at < 2 µM, read-out: IC50 for the response observed at lower concentrations (biphasic curve)) it was 190 nM. The “Larval development as % of that observed in control assays” value with Haemonchus contortus (at low micromolar concentrations (< 2 µM)) is 90%. Also, the “Fold more potent than spider-venom peptide Hi1a” value with Haemonchus contortus (larval development, same assay) was “about threefold”. Further, the “Hemolysis (HC50)” value in the data set on human red blood cells is recorded as 2.2 µM. The “Insecticidal Activity (LD50)” value with Drosophila melanogaster was 260 pmol/g and 260.1 ± 16.6 pmol/g.
